Data from patent US20240208978A1, “IDH MUTANT INHIBITOR AND USE THEREOF” (WIGEN BIOMEDICINE TECHNOLOGY (SHANGHAI) CO., LTD., priority 2021, published 2024).

Legend:
IDH1 R132C = biological target: T1, IDH1 R132C (Homo sapiens, UniProt O75874, R132C); test: Detection of 2-HG in supernatant of HT1080 cells carrying IDH1 R132C; assay type: cell-based; conditions: 72 h, LC-MS-MS
T1 construct: endogenous in cells; host or cells: HT1080
Method: (§1) U87MG cells overexpressing the mIDH1 R132H mutation or HT1080 cells carrying IDH1 R132C were seeded in a 48-well plate and a 96-well plate at 50,000 cells/well and 10,000 cells/well, respectively. After the cells were incubated overnight for adhesion, the supernatants were removed. The cell culture media containing serially diluted compounds were added, and the cells were incubated for 72 h. After 72 h, the culture media were collected and diluted 10-fold and 20-fold with water, respectively. Acetonitrile was added to extract the metabolites. The 2-HG content in the culture media was analyzed by LC-MS-MS. The percentage inhibition and IC50 of the compounds on 2-HG in the supernatant were calculated as compared with the control group.

[1] = Stability test of human liver microsomes; assay type: in vitro ADME; conditions: 1 μM compound, 500 μg/ml human liver microsomes, NADPH regeneration system, 37° C.; read-out: Liver microsomal stability T1/2, Human
Method: (§2) After the 1 μM compound was incubated with 500 μg/ml of human or mouse liver microsomes and a NADPH regeneration system at 37° C. for different times, respectively, LC-MS-MS was used to analyze the remaining amount of the compound and calculate T1/2.

[2] = Stability test of mouse liver microsomes; assay type: in vitro ADME; conditions: 1 μM compound, 500 μg/ml mouse liver microsomes, NADPH regeneration system, 37° C.; read-out: Liver microsomal stability T1/2, Mouse
Method: as §2

mIDH1 R132H = biological target: T2, mIDH1 R132H (Homo sapiens, UniProt O75874, R132H); test: Detection of 2-HG in supernatant of U87-IDH1 R132H cells; assay type: cell-based; conditions: U-87 MG, 72 h, U87MG cells overexpressing mIDH1 R132H, LC-MS-MS; for inhibition at 0.001 µM: 1 nM compound, read-out: Inhibition rate on 2-HG in the supernatant of U87-IDH R132H cells, 1 nM; for inhibition at 0.01 µM: 10 nM compound, read-out: Inhibition rate on 2-HG in the supernatant of U87-IDH R132H cells, 10 nM; for inhibition at 0.1 µM: 100 nM compound, read-out: Inhibition rate on 2-HG in the supernatant of U87-IDH R132H cells, 100 nM
T2 construct: expressed in transfected cells; host or cells: U87MG
T2 sequence (O75874 whole entry R132H): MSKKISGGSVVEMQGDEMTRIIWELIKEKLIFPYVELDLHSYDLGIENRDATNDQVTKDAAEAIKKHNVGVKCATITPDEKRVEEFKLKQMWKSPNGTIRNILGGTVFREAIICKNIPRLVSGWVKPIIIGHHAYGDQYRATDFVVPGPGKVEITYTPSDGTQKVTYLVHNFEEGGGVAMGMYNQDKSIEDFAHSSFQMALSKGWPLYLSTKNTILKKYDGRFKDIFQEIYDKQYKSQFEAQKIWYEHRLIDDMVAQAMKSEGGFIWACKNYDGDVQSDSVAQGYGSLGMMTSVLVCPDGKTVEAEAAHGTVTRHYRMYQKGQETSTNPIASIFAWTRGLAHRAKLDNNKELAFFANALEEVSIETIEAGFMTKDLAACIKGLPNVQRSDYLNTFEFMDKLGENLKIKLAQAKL
Method: as §1

T1 sequence (O75874 whole entry R132C): as the sequence (O75874 whole entry R132H) above, with H132C counted along it

Q: Which IC50 (IDH1 R132C) does the source give for `C=CC(=O)N1CCN([C@@H](CC2CC2)c2ccc([C@H](C)Nc3ncc4[nH]c(=O)n(C5CCC5)c4n3)cc2)CC1` [Compound 5-1] here?
A: Its IC50 is 2.63 nM.

Q: With `C=CC(=O)N1CCN(C(CC2CC2)c2ccc(C(C)Nc3ncc4[nH]c(=O)n(C5CCCC5)c4n3)cc2)CC1` (centres unmarked) [Compound 6-1] as the compound, how does the IC50 (IDH1 R132C) read?
A: Its IC50 is 3.22 nM.

Q: What about the half-life at 1 μM [1] of the same compound?
A: The half-life at 1 μM was 4.4 min.

Q: What about the half-life at 1 μM [2] of the same compound?
A: Its half-life at 1 μM is 3.9 min.

Q: Which results are given for `C=CC(=O)N1CCN([C@@H](CC2CC2)c2ccc([C@H](C)Nc3ncc4[nH]c(=O)n(CC)c4n3)cc2)CC1` [Compound 1-1]?
A: IC50 (IDH1 R132C): 2.24 nM; half-life at 1 μM [1]: 11.3 min; half-life at 1 μM [2]: 4.4 min

Q: For `C=CC(=O)N1CCN([C@@H](CC2CC2)c2ccc([C@H](C)Nc3ncc4[nH]c(=O)n(C(C)C)c4n3)cc2)CC1` [Compound 3-1], which IC50 (IDH1 R132C) is on record?
A: Its IC50 is 1.22 nM.

Q: And the half-life at 1 μM [1]?
A: The half-life at 1 μM was 5 min.

Q: And the half-life at 1 μM [2]?
A: The half-life at 1 μM was 4 min.

Q: With `C=CC(=O)N1CCN([C@@H](CC2CC2)c2ccc([C@H](C)Nc3ncc4[nH]c(=O)n(C5CC5)c4n3)cc2)CC1` [Compound 4-1] as the compound, how does the IC50 (IDH1 R132C) read?
A: The IC50 was 11.5 nM.

Q: For `C=CC(=O)N1CCN([C@@H](CC2CC2)c2ccc([C@H](C)Nc3ncc4c(n3)N(CC)C(=O)OC4)cc2)CC1` [LY-3410738, reference compound], which inhibition at 0.001 µM (mIDH1 R132H) is on record?
A: Its inhibition at 0.001 µM is 30 to 60%.

Q: What about the inhibition at 0.01 µM (mIDH1 R132H) of the same compound?
A: The inhibition at 0.01 µM was greater than 90%.

Q: And the inhibition at 0.1 µM (mIDH1 R132H)?
A: The inhibition at 0.1 µM was greater than 90%.

Q: What about the IC50 (IDH1 R132C) of the same compound?
A: Its IC50 is 1.9 nM.

Q: What about the half-life at 1 μM [1] of the same compound?
A: Its half-life at 1 μM is 1.8 min.

Q: And the half-life at 1 μM [2]?
A: Its half-life at 1 μM is 1.6 min.

Q: For `C=CC(=O)N1CCN(C(CC2CC2)c2ccc([C@H](C)Nc3ncc4[nH]c(=O)n(C(C)C)c4n3)cc2)CC1` (some centres unmarked) [Compound 3], which inhibition at 0.001 µM (mIDH1 R132H) is on record?
A: Its inhibition at 0.001 µM is 30 to 60%.

Q: And the inhibition at 0.01 µM (mIDH1 R132H)?
A: The inhibition at 0.01 µM was greater than 90%.

Q: What about the inhibition at 0.1 µM (mIDH1 R132H) of the same compound?
A: The inhibition at 0.1 µM was greater than 90%.

Q: And the IC50 (IDH1 R132C)?
A: The IC50 was 2.06 nM.

Q: For `C=CC(=O)N1CCN([C@H](CC2CC2)c2ccc([C@H](C)Nc3ncc4[nH]c(=O)n(C(C)C)c4n3)cc2)CC1` [Compound 3-2], which IC50 (IDH1 R132C) is on record?
A: The IC50 was 2.36 nM.

Q: Which inhibition at 0.001 µM (mIDH1 R132H) does the source give for `C=CC(=O)N1CCN(C(CC(C)C)c2ccc([C@H](C)Nc3ncc4[nH]c(=O)n(CC)c4n3)cc2)CC1` (some centres unmarked) [Compound 8] here?
A: The inhibition at 0.001 µM was 30 to 60%.

Q: What about the inhibition at 0.01 µM (mIDH1 R132H) of the same compound?
A: The inhibition at 0.01 µM was greater than 90%.

Q: What about the inhibition at 0.1 µM (mIDH1 R132H) of the same compound?
A: Its inhibition at 0.1 µM is greater than 90%.

Q: With `C=CC(=O)N1CCN(C(CC2CC2)c2ccc(C3(Nc4ncc5[nH]c(=O)n(C(C)C)c5n4)CC3)cc2)CC1` (centres unmarked) [Compound 40] as the compound, how does the inhibition at 0.001 µM (mIDH1 R132H) read?
A: The inhibition at 0.001 µM was less than 30%.

Q: What about the inhibition at 0.01 µM (mIDH1 R132H) of the same compound?
A: The inhibition at 0.01 µM was 60 to 90%.

Q: What about the inhibition at 0.1 µM (mIDH1 R132H) of the same compound?
A: The inhibition at 0.1 µM was greater than 90%.

Q: For `C=CC(=O)N1CCN(C(CC2CC2)c2ccc([C@H](C)Nc3ncc4[nH]c(=O)n(CC)c4n3)cc2)CC1` (stereo partly drawn) [Compound 1, 2-(((1S)-1-(4-(1-(4-acryloylpiperazin-1-yl)-2-cyclopropylethyl)phenyl)ethyl)amino)-9-ethyl-7,9-dihydro-8H-purin-8-one], which inhibition at 0.001 µM (mIDH1 R132H) is on record?
A: Its inhibition at 0.001 µM is 60 to 90%.

Q: And the inhibition at 0.01 µM (mIDH1 R132H)?
A: The inhibition at 0.01 µM was greater than 90%.

Q: What about the inhibition at 0.1 µM (mIDH1 R132H) of the same compound?
A: The inhibition at 0.1 µM was greater than 90%.

Q: What about the IC50 (IDH1 R132C) of the same compound?
A: Its IC50 is 4.48 nM.

Q: What does the source list for `C=CC(=O)N1CCN(C(CC2CC2)c2ccc([C@H](C)Nc3ncc4c(n3)n(C(C)C)c(=O)n4C)cc2)CC1` (some centres unmarked) [Compound 38]?
A: inhibition at 0.001 µM (mIDH1 R132H): < 30%; inhibition at 0.01 µM (mIDH1 R132H): 60 to 90%; inhibition at 0.1 µM (mIDH1 R132H): 60 to 90%

Q: With `C=CC(=O)N1CCN(C(CC(C)(C)C)c2ccc([C@H](C)Nc3ncc4[nH]c(=O)n(CC)c4n3)cc2)CC1` (some centres unmarked) [Compound 11] as the compound, how does the inhibition at 0.001 µM (mIDH1 R132H) read?
A: The inhibition at 0.001 µM was 30 to 60%.

Q: And the inhibition at 0.01 µM (mIDH1 R132H)?
A: The inhibition at 0.01 µM was 60 to 90%.

Q: And the inhibition at 0.1 µM (mIDH1 R132H)?
A: The inhibition at 0.1 µM was greater than 90%.

Q: For `C=CC(=O)N1CCN(C(CC)c2ccc([C@H](C)Nc3ncc4[nH]c(=O)n(CC)c4n3)cc2)CC1` (some centres unmarked) [Compound 7], which inhibition at 0.001 µM (mIDH1 R132H) is on record?
A: The inhibition at 0.001 µM was 30 to 60%.

Q: And the inhibition at 0.01 µM (mIDH1 R132H)?
A: The inhibition at 0.01 µM was 60 to 90%.

Q: What about the inhibition at 0.1 µM (mIDH1 R132H) of the same compound?
A: Its inhibition at 0.1 µM is greater than 90%.

Q: What does the source list for `C=CC(=O)N1CCN(C(CC23CC(C2)C3)c2ccc([C@H](C)Nc3ncc4[nH]c(=O)n(C(C)C)c4n3)cc2)CC1` (some centres unmarked) [Compound 33]?
A: inhibition at 0.001 µM (mIDH1 R132H): 60 to 90%; inhibition at 0.01 µM (mIDH1 R132H): > 90%; inhibition at 0.1 µM (mIDH1 R132H): > 90%
